# Data taken from patent publication US4672063A, “Antiallergic 5-alkyl-1-phenyl-2-piperazinoalkylpyrazolin-3-one compounds” (Kali-Chemie Pharma GmbH, priority 1984, dated 1987).
# What was measured:
# [1] = tested on: serotonin induced anaphylactoidal reaction; test: Inhibition of serotonin-induced anaphylactoid cutaneous reaction in the rat, test substance p.o.; format: in vivo, rat (Sprague-Dawley); conditions: po, 1 μg serotonin intradermally, read-out: ED50 inhibiting effect, serotonin induced anaphylactoidal reaction
# Procedure: (§1) 2. Determining the inhibition of passive cutaneous anaphylaxis (PCA) and the inhibition of anaphylactoid cutaneous reactions induced by histamine and by serotonin.
# (§2) The determination of the inhibition of passive cutaneous anaphylaxis and the anaphylactoid cutaneous reactions induced by histamine and by serotonin, are carried out, as set forth below, according to the method of Martin and Baggiolini (Naunyn-Schmeiedeberg's Archives of Pharmacology 316 (1981) 186-189).
# (§3) For passive sensitizing against ovalbumin, male Sprague-Dawley rates (body weight 150 to 165 g) are injected intradermally on a shaved part of the back with 0.05 ml of a 1:2.5 dilution of antiovalbumin serum, rich in IgE, in physiological sodium chloride solution.
# (§4) 24 hours after the sensitizing, solutions of the test substances are administered orally to the rats. For comparison, a control group receives only the solvent.
# (§5) To trigger the histamine-induced and serotonin-induced anaphylactoid reactions of the skin, the animals are injected intradermally 30 minutes later on a second shaved part of the back with a solution of 40 μg histamine in 0.05 ml physiological sodium chloride solution and on a third shaved part of the back with a solution of 1 μg serotonin in 0.05 physiological sodium chloride solution.
# (§6) Immediately thereafter 1.25 mg (-~8 mg/kg) ovalbumin to trigger the anaphylactic reaction, and 4 mg (-~26.4 mg/kg) of a blue dye dissolved in 0.5 ml phosphate-buffered physiological sodium chloride solution are administered i.v. to the animals.
# (§7) After 30 minutes the animals are killed, the skin is removed and in the individual blue patches the quantity of dye contained therein is determined separately. According to the method of Mordelet-Danbrine et al (Therapie 29 (1974) 851-862) the dye is extracted from the individual patches in each case with 2.5 ml dimethylformamide at a temperature of 37° C. for 4 days and the quantity of dye obtained in each case in the extraction solution is determined by spectrophotometric measurement. The doses of the test substances which cause a 50% reduction in the dye concentration compared with the control group are calculated as ED50 values.
# [2] = Acute 8-day toxicity, single i.p. application to male mice (LD50); conditions: in vivo, ip, mouse i.p., 8 days
# Procedure: The acute 8-day toxicity is determined after a single application i.p. to male mice (body weight 18 to 22 g). The mortality is noted for 8 days. The results are calculated as LD50 values, i.e. the dose which kills 50% of the animals.
# [3] = tested on: histamine-induced anaphylactoidal reaction; test: Inhibition of histamine-induced anaphylactoid cutaneous reaction in the rat, test substance p.o.; format: in vivo, rat (Sprague-Dawley); conditions: po, 40 μg histamine intradermally, read-out: ED50 inhibiting effect, histamine-induced anaphylactoidal reaction
# Procedure: as §1, §2, §3, §4, §5, §6, §7
# [4] = tested on: passive cutaneous anaphylaxis; test: Inhibition of passive cutaneous anaphylaxis (PCA) in the rat, test substance p.o.; format: in vivo, rat (Sprague-Dawley); conditions: po, 50% reduction in dye concentration vs control, read-out: ED50 inhibiting effect, passive cutaneous anaphylaxy
# Procedure: as §1
# For the preparation of an antiovalbumin serum, rich in IgE, which is used in the test, according to the method of Lehrer et al (J. Immunol. 116, (1976) 178-182) and Pauwels et al (Ann. Immunol. 230C., (1979), 49-58), Sprague-Dawley rats are sensitized by i.p. injection of 1 mg ovalbumin and 1 ml Bordetella pertussis suspension (vaxicoq, Merieux 3×10^10 organisms/ml). After 20 days the animals are given an injection of 10 mg ovalbumin in the same way, but without any additive. After a further 4 days, blood is removed from the animals and the blood is centrifuged. The antiserum thus obtained is stored at -20° C. and adjusted according to the method of Goose et al (Immunology 16 (1968) 749-760).
# as §2, §3, §4, §6, §7
# [5] = tested on: peritonal mast cells of rats; test: In vitro inhibition of anaphylactically caused histamine release from peritonal mast cells of rats; format: cell-based, rat (Sprague-Dawley); conditions: Rattus norvegicus, Mast cell; ovalbumin trigger, 1 minute preincubation at 37° C.; read-out: EC50 in vitro inhibiting effect with respect to anaphylactically caused histamine release from mast cells of the rat
# Procedure: 3. Determining the inhibiting effect in vitro on the release of histamine, caused anaphylactically, from peritonal mast cells of rats.
# In order to obtain the peritonal mast cells, Sprague-Dawley rats are killed by inhalation of ether and immediately after cessation of breathing has occurred, 15 ml of a cold solution of 1 mg/ml human serum albumin in phosphate-buffered sodium chloride solution are injected into the abdominal cavity. The peritonal fluid is then removed and the mast cells are separated therefrom by centrifuging and are suspended in phosphate-buffered sodium chloride solution, whereafter the suspension is adjusted to a mast cell concentration of 5×10^5 per ml.
# The mast cell suspension, divided up into samples each of 100 μl, is introduced into test-tubes and each sample, for passive sensitizing, is mixed with 100 μl of a 1:10 dilution of IgE-rich antiovalbumin serum in physiological sodium chloride solution (prepared according to the method described above) and is incubated for 30 minutes at a temperature of 37° C. (water bath). For the removal of unbonded IgE, the mast cells are then washed with 2 ml phosphate-buffered sodium chloride solution, centrifuged, and the supernatant fluid is discarded. Then the mast cells are incubated for 1 minute at 37° C. with 200 μl of a solution of the test substance in phosphate-buffered sodium chloride solution. A control group is only incubated with the same quantity of phosphate-buffered sodium chloride solution which is free of test substance.
# After an incubation period of 3 minutes at 37° C., the reaction is stopped by rapid cooling in an ice bath. Then centrifuging takes place, the supernatant fluid is decanted and the histamine content therein is determined directly, without further extraction, spectrofluorimetrically according to the method of Shore (J. Pharmac. Exp. Ther. 127 (1959) 182-186).
# For the extraction of the residual histamine still contained in the mast cells of the undecanted material, the latter is mixed with 2 ml phosphate-buffered sodium chloride solution and the suspension is heated in a boiling water bath. Then centrifuging takes place, the supernatant fluid is decanted and therein the residual histamine extracted from the mast cells is determined spectrofluorimetrically.
# For each sample, the quantity of the released histamine is calculated as percentage proportion of the overall quantity of histamine (=total of released histamine and residual histamine retained in the mast cells).
# The EC50 values are calculated to be those molar concentrations of the test substances in the respective test solutions which produce a 50% inhibition of the histamine release compared to the control group.
Structure (SMILES),ED50 [1],LD50 at 192 h [2],ED50 [3],ED50 [4],EC50 [5]
"Cc1ccnc(N2CCN(CCCn3c(=O)cc(C)n3-c3ccc([N+](=O)[O-])cc3)CC2)c1 [Example 2, 5-methyl-1-(4-nitrophenyl)-2-{3-[4-(4-methyl-pyrid-2-yl)-piperazin-1-yl]-propyl}-pyrazolin-3-one]",2.7 mg/kg,90 mg/kg,1.75 mg/kg,1.9 mg/kg,
"Cc1ccnc(N2CCN(CCCCn3c(=O)cc(C)n3-c3ccccc3)CC2)c1 [Example 4, 5-methyl-1-phenyl-2-{4-[4-(4-methyl-pyrid-2-yl)-piperazin-1-yl]-butyl}-pyrazolin-3-one]",5.9 mg/kg,130 mg/kg,7.98 mg/kg,3.9 mg/kg,
"Cc1ccnc(N2CCN(CCCn3c(=O)cc(C)n3-c3ccc(O)cc3)CC2)c1 [Example 7, 5-methyl-1-(4-hydroxyphenyl)-2-{3-[4-(4-methyl-pyrid-2-yl)-piperazin-1-yl]-propyl}-pyrazolin-3-one]",13 mg/kg,178 mg/kg,7.9 mg/kg,6.6 mg/kg,
Cc1cc(=O)n(CCCN2CCN(c3ccccc3)CC2)n1-c1ccccc1 [Example 11],10.2 mg/kg,108 mg/kg,10.1 mg/kg,4.65 mg/kg,
CCCc1cc(=O)n(CCCN2CCN(c3cc(C)ccn3)CC2)n1-c1ccccc1 [Example 13],1.87 mg/kg,96 mg/kg,5.48 mg/kg,2.94 mg/kg,
Cc1ccnc(N2CCN(CCCn3c(=O)cc(C4CCCCC4)n3-c3ccccc3)CC2)c1 [Example 15],1.7 mg/kg,90 mg/kg,4.4 mg/kg,1.9 mg/kg,14 µM
COC(=O)c1ccccc1-n1c(C)cc(=O)n1CCCN1CCN(c2cc(C)ccn2)CC1 [Example 17],10.8 mg/kg,342 mg/kg,12.6 mg/kg,5 mg/kg,
Cc1ccnc(N2CCN(CCCn3c(=O)cc(C)n3-c3ccc(Cl)cc3)CC2)c1 [Example 18],6.2 mg/kg,205 mg/kg,6.6 mg/kg,4.7 mg/kg,230 µM
COc1ccc(N2CCN(CCCn3c(=O)cc(C)n3-c3ccc(C)cc3Cl)CC2)cc1 [Example 20],,,,,10 µM
COc1ccccc1-n1c(C)cc(=O)n1CCCN1CCN(c2cc(C)ccn2)CC1 [Example 21],8.3 mg/kg,252 mg/kg,5.1 mg/kg,7.1 mg/kg,
CCCc1cc(=O)n(CCCN2CCN(c3ccc(F)cc3)CC2)n1-c1ccc(Cl)c(Cl)c1 [Example 22],,,,,43 µM
CCc1cc(=O)n(CCCN2CCN(c3cc(C)ccn3)CC2)n1-c1ccc(Cl)cc1 [Example 23],5.8 mg/kg,168 mg/kg,4.7 mg/kg,7.85 mg/kg,140 µM
CCCCCCc1cc(=O)n(CCCN2CCN(c3cc(C)ccn3)CC2)n1-c1ccccc1 [Example 26],7.8 mg/kg,72.5 mg/kg,6.3 mg/kg,6.75 mg/kg,35 µM
CCOc1ccc(-n2c(C)cc(=O)n2CCCN2CCN(c3cc(Cl)ccc3C)CC2)cc1 [Example 30],,,,,18 µM
CCc1cc(=O)n(CCCN2CCN(c3cc(C)ccn3)CC2)n1-c1ccc([N+](=O)[O-])cc1 [Example 38],5.54 mg/kg,93 mg/kg,3.88 mg/kg,3.18 mg/kg,
O=c1cc(C2CC2)n(-c2ccccc2)n1CCCN1CCN(c2ccc(F)cc2)CC1 [Example 43],3.25 mg/kg,,5.79 mg/kg,2.45 mg/kg,
CC(=O)c1ccc(-n2c(C)cc(=O)n2CCCN2CCN(c3cc(C)ccn3)CC2)cc1 [Example 44],8.9 mg/kg,170 mg/kg,3.15 mg/kg,5.4 mg/kg,
Cc1cc(=O)n(CCCN2CCN(c3ccccn3)CC2)n1-c1ccccc1 [Example 45],8 mg/kg,240 mg/kg,11 mg/kg,6.3 mg/kg,
Cc1ccnc(N2CCN(CCCn3c(=O)cc(C)n3-c3ccc(C#N)cc3)CC2)c1 [Example 46],8 mg/kg,101 mg/kg,2.8 mg/kg,6.3 mg/kg,
COc1ccc(-n2c(C)cc(=O)n2CCCN2CCN(c3cc(C)ccn3)CC2)cc1 [Example 47],6.8 mg/kg,190 mg/kg,6.8 mg/kg,5.96 mg/kg,
O=c1cc(C2CCCCC2)n(-c2ccccc2)n1CCCN1CCN(c2ccc(F)cc2)CC1 [Example 49],3.59 mg/kg,96 mg/kg,10.6 mg/kg,4.9 mg/kg,57 µM
Cc1ccc(-n2c(C)cc(=O)n2CCCN2CCN(c3cc(C)ccn3)CC2)cc1 [Example 55],11.8 mg/kg,135 mg/kg,11.9 mg/kg,7.26 mg/kg,
COc1ccc(-n2c(C)cc(=O)n2CCCN2CCN(c3cc(C)ccn3)CC2)cc1OC [Example 56],6.29 mg/kg,> 350 mg/kg,3.85 mg/kg,5.7 mg/kg,
Cc1ccnc(N2CCN(CCCn3c(=O)cc(C4CCCC4)n3-c3ccccc3)CC2)c1 [Example 58],1.41 mg/kg,95 mg/kg,10 mg/kg,1.17 mg/kg,120 µM
